# Patent publication US12577526B2, “Massively parallel on-chip construction of synthetic microbial communities” (MASSACHUSETTS INSTITUTE OF TECHNOLOGY, priority 2019, dated 2026)
# Entries after “also recorded” stand apart in the source; their conditions may differ.
# System: Herbaspirillum frisingense (Hf-GFP)
# Assay: Hf-GFP facilitation screen on kChip (Hf-GFP yield in co-culture with soil isolate compositions, single carbon sources)
# Format: cell-based
# Conditions: single carbon source 0.5% w/v, by 72 hours
# Procedure: Microbial cultures were prepared as described in the “Microbial culture input preparation” section above. The culture medium for H. frisingense revival from a glycerol stock also included the selection antibiotic kanamycin (30 μg/mL). Six carbon sources (galactose, glucose, fructose, raffinose, lactose, sucrose) were prepared as described in the “Carbon source input preparation” section above to a concentration of 2% w/v, which were added 1:1 with MM+0.05% w/v BSA to produce 1×MM+1% w/v carbon source (six unique MM each with one carbon source). A plate of 16 color codes were also prepared in advance at 50 μM total concentration (“kChip input preprocessing” section above).
# At the onset of the screen, all cultures were washed three times and resuspended in MM+0.05% w/v BSA (no carbon source) and normalized to an initial OD600=0.08. A “droplet plate” (96-well plate) was prepared whereby each of 16 wells, corresponding to the 16 input conditions of the screen, received the following four elements: (1) 50 μL MM+1% w/v carbon source; (2) 25 μL unique soil isolate at OD600=0.08 (or a no-isolate control or a negative control); (3) 25 μL Hf-GFP at OD600=0.08; and (4) 2 μL 50 μM color code. The two controls, a negative control and a no-isolate control, were in principle the same (just different color codes), with the negative control used to measure Hf-GFP monocultures and the no-isolate used to calculate isolate-mediated differences. The carbon source and color code were mixed in advance, though the cultures were added just before making droplets to load on a kChip.
# After emulsification, each 1-nL droplet contained the following: (1) 0.5% w/v carbon source; (2) soil isolate at OD600=0.02 (˜20 cells) (or no-isolate control or negative control); (3) Hf-GFP at OD600=0.02 (˜20 cells); and (4) a set of color code (total concentration of all three fluorescent dyes at 1 μM). Droplets were prepared for each carbon source at a time and loaded onto a k={1:7;19} Chip, i.e. first all sucrose-containing droplets were prepared and loaded onto the first kChip in the screen, then all lactose-containing droplets were prepared and loaded onto the second kChip, and so forth. Because there were only 16 inputs in total, there were no instances where all inputs were unique in k=19 microwells. The instant analysis was focused upon the k=1-7 microwells, and specifically on instances where all droplets within a given microwell were unique. Throughput tradeoffs associated with this number of inputs and k values are discussed below.
# After loading droplets, the kChip was imaged to read the color-code of each droplet (“pre-merge” scan) and droplet sets were merged within their corresponding microwells (“Droplet making and kChip loading” section above). The post-merge communities contained the following: (1) 0.5% w/v carbon source; (2) k=1, 2, 3, 4, 5, 6, 7, or 19 soil isolates collectively at OD600=0.02 (or no-isolate control or negative control); (3) Hf-GFP at OD600=0.02; and (4) 1 μM mixed color codes (no longer serving a purpose). […]
row,Compound,Hf-GFP monoculture growth/yield on the carbon source
1,OC[C@H]1O[C@@H](O[C@H]2[C@H](O)[C@@H](O)C(O)O[C@@H]2CO)[C@H](O)[C@@H](O)[C@H]1O (stereo partly drawn) [lactose],low
2,O=C(CO)[C@@H](O)[C@H](O)[C@H](O)CO [fructose],low
3,OC[C@H]1O[C@@](CO)(O[C@H]2O[C@H](CO)[C@@H](O)[C@H](O)[C@H]2O)[C@@H](O)[C@@H]1O [sucrose],indistinguishable from background; also recorded: undetectably low
4,O=C[C@H](O)[C@@H](O)[C@@H](O)[C@H](O)CO [galactose],high yield
5,OC[C@H]1O[C@H](OC[C@H]2O[C@H](O[C@]3(CO)O[C@H](CO)[C@@H](O)[C@@H]3O)[C@H](O)[C@@H](O)[C@@H]2O)[C@H](O)[C@@H](O)[C@H]1O [raffinose],low

# System: panel of seven fluorescent strains
# Assay: not given
# Conditions: cultures unable to grow on a given carbon source, BSA added
row,Compound,serving as an alternative carbon source (false positive growth)
1,bovine serum albumin [BSA],caused no false positives
